Laboratory results taken from patent publication US9844595B2, “Composition comprising a complex of (+)-catechin and amino acid for the treatment and prevention of cancer” (VALORE, priority 2013, dated 2017).

Experiments:
collagen of rat skin = test: Total incorporation and incorporation into collagen of 3H-proline in the skin; format: in vivo, Wistar rats; conditions: for increase in the level of incorporation: 100 mg/kg by gavage, vs control subgroup
Protocol: To do this, a study was carried out in vivo on a batch of 24 female Wistar rats weighing from 95 to 115 g, divided into two groups C and D, each of 12 rats. For each group, the radioactive 3H-hydroxyproline, the specific activity of which is 13.6 Ci/10-3 mol, was administered to all the animals by intraperitoneal injection of 3H-proline at a dose, relative to the weight of the individuals, of 1 mCi/kg, which represents an activity in terms of radioactive 3H-proline of 100 μCi/individual.
6 rats of each group received a treatment based on monomeric (+)-catechin by gavage in a proportion of 100 mg/kg for 5 days before sacrifice. […] The group C received monomeric (+)-catechin hydrochlorolysinate, while the group D received monomeric (+)-catechin ascorbolysinate.
In table 8, the level of incorporation is measured by the number of disintegrations of the radioactive 3H-hydroxyproline per minute (dpm) per mg of dry weight. The higher this number, the higher the concentration of 3H-hydroxyproline.
In this comparative example, a group E of 12 Wistar rats weighing from 95 to 115 g, in which radioactive 3H-hydroxyproline, the specific activity of which is 13.6 Ci/10-3 mol, was administered to all the individuals by intraperitoneal injection of 3H-proline at a dose, relative to the weight of the individuals, of 1 mCi/kg, which represents an activity in terms of radioactive 3H-proline of 100 μCi/individual.
6 rats of each group received a treatment based on pure monomeric (+)-catechin by gavage in a proportion of 100 mg/kg for 5 days before sacrifice.

gastric mucosa = test: Incidence of gastric ulcers and histamine level in the gastric mucosa in Mastomys; format: in vivo
Protocol: In this example, a sample of n=48 Mastomys are sensitized a first time by intraperitoneal injection of 3 μg of ovalbumin dissolved in 0.2 ml of saline solution containing 1 mg of aluminum hydroxide which brings about anti-immunoglobulin E (IgE) and G (IgG) antibodies. After 7 days, a second injection of 1 mg of ovalbumin in 0.01 ml of saline solution is given in the gastric mucosa at the level of the corpus of the anesthetized animals, which causes an ulcerated lesion at the actual site of the injection.
The 48 rats are divided up into three groups: one of 24 and two of 12 individuals. The first group of 24 individuals (G1) received a placebo (concentrated NaCl solution at 0.15 M).
The histamine level is measured for the G1, G2 and G3 groups on the basis of a sample of n=12 individuals.

[1] = system: monoclonal immunoglobulins (IgM); test: Treatment of a patient with lymphoplasmocytic lymphoma (Waldenström macroglobulinemia type): IgM assay; format: in vivo, human; conditions: one patient
Protocol: In the first patient a lymphoplasmocytic lymphoma (of Waldenström macroglobulinemia type) was detected during a post-operative blood test on day Do. The diagnosis is based on the electrophoretic detection of a monoclonal peak of immunoglobulins (IgM). This diagnosis was reconfirmed and the peak was assayed during a second analysis using the same detection by electrophoresis.
These immunoglobulins are found at a high concentration in the blood and in the urine. They therefore constitute real tumor markers. The assaying thereof gives an account of the number of sick cells and the extent of the disease and, consequently, makes it possible to monitor its progression under treatment.
Successive blood tests gave the following data for the IgM assay (in mg per 100 ml of plasma): […]

[2] = system: clear cell renal carcinoma; test: Treatment of a patient with renal adenocarcinoma; format: in vivo, human; conditions: DT+19 months, reconfirmed DT+23 months; one patient, 500 mg per day orally, after nephrectomy, dissections and radiotherapy
Protocol: In the second patient, a left subclavicular cervical adenopathy was first of all detected on day Do. Next, 2 weeks later, a left renal adenocarcinoma was detected for this patient, which was followed by a nephrectomy of the left kidney 3 days after the detection of the adenocarcinoma in this kidney.
Thereafter, on day D0+3 months, a left cervical lymph node dissection is performed on the patient. This procedure was followed by a series of 15 radiotherapy sessions.
Starting from day D0+15 months (that is to say on day DT), the patient was orally administered a tablet of 500 mg of (+)-catechin hydrochlorolysinate per day.
On day DT+15 months, the appearance of a pathological mediastinal adenopathy (45 cm^3 in volume) was observed and required a mediastinal lymph node dissection followed by a pulmonary examination on day DT+17 months.

[3] = treated, 100 mg/kg by gavage for 5 days, per mg of dry weight
[4] = G3, n = 12, 100 mg intraperitoneally
[5] = oral administration, vs placebo

| Substance | increase in the level of incorporation (collagen of rat skin) | level of incorporation into collagen (IC) of 3H-hydroxyproline in rat skin (collagen of rat skin; [3]) [dpm/mg] | level of total incorporation (IT) of 3H-hydroxyproline in rat skin (collagen of rat skin; [3]) [dpm/mg] | HL (histamine level in the gastric mucosa) (gastric mucosa; G2, n = 12, per os twice a day (2×300 mg)) | NU (number of animals exhibiting a gastric ulcer) (gastric mucosa; G2, n = 12, per os twice a day (2×300 mg), two days before and three days after injection) | HL (histamine level in the gastric mucosa) (gastric mucosa; [4]) | NU (number of animals exhibiting a gastric ulcer) (gastric mucosa; [4]) | decrease in the histamine level (HL) in the gastric mucosa (gastric mucosa; [5]) [%] | decrease in the number of animals exhibiting a gastric ulcer (NU) (gastric mucosa; [5]) [%] | IgM level in the blood ([1]; DT + 4 months, tablet of 500 mg per day from day DT (IgM 2931 on DT)) [mg/100 ml] | IgM level in the blood ([1]; DT + 9 months, tablet of 500 mg per day from day DT) [mg/100 ml] | IgM level in the blood ([1]; DT + 15 months, tablet of 500 mg per day from day DT) [mg/100 ml] | status of the clear cell renal carcinoma (consultation report) [2] |
| --- | --- | --- | --- | --- | --- | --- | --- | --- | --- | --- | --- | --- | --- |
| monomeric (+)-catechin ascorbolysinate | +14% |  |  |  |  |  |  |  |  |  |  |  |  |
| monomeric (+)-catechin hydrochlorolysinate [[C:Lys:HCl/1:1:1]] | +15% | 1343 ± 48 | 6248 ± 124 | 37.91 ± 3.73 10^−6 mg/kg of protein | 5 | 34.98 ± 3.52 10^−6 mg/kg of protein | 6 | −18 | −72 | 2417 | 2410 | 2412 | complete remission |
